# From US10363229B2, “Methods and compositions for the treatment of cancer” (priority 2009, dated 2019)
# Columns and labels:
# [1] = tested on: normal lymphocytes (T-cells) from a healthy volunteer; test: Apoptosis of normal T-cell lymphocytes by Flow Cytometry; format: cell-based, human
# Description: Normal T-cell lymphocytes were obtained from a blood sample of a healthy volunteer. Blood samples were obtained with IRB approval and with the volunteer signing an Informed Consent Form. White blood cells were separated from red blood cells using a Ficoll gradient. Flow cytometry with antibodies against CD3 and CD4 was used to identify T-cell lymphocytes (Flow Cytometry Facility, University of Connecticut Health Center, Farmington, Conn.).
# Blood was drawn from healthy volunteers and white blood cells (e.g., lymphocytes, neutrophils) were enriched using Ficoll-Plaque. Cells were incubated in Petri dishes containing MEM with 7% fetal calf serum in a CO2 (5%) incubator at 37° C.; Methyl sulfone was present at concentrations of 0, 3, 6, or 10%. After 20 hours, cells were incubated with antibodies specific to T-lymphocytes (CD3 and CD4 T-cells), B-lymphocytes (B-cells) and neutrophils, and the percent of apoptotic cells was determined by Flow Cytometry. This is a technique that identifies specific cell types (e.g., CD3 T-cells, CD4 T-cells, B-cells, neutrophils) within a mixed population of blood cells, and then determines whether the cells are alive or apoptotic.
# After 20 hours, cells were incubated with fluorescent antibodies to identify T-cells, B-cells and neutrophils, and then processed by Flow Cytometry (FIG. 15).
# [2] = tested on: E-cadherin, β-catenin, N-cadherin and vimentin in melanoma cells; test: Immunofluorescence of E-cadherin, β-catenin, N-cadherin and vimentin (ETM transition); format: cell-based, mouse; details: 2% methyl sulfone, 1 week
# Experimental: Cells were plated onto 12 mm coverslips. When cells grew to 60 to 70% confluence, 2% methyl sulfone was added to half the coverslips and normal medium to other half. […] PBS for 30 seconds and fixed in 37° C. 4% paraformaldehyde for 10 minutes. Cells were washed in PBS for 5 minutes and incubated in 1% Triton X-100/PBS for 5 minutes. To block nonspecific sites, chicken serum was diluted 1/20 in PBS and added to cells for 30 minutes. Cells were washed 3 times in 0.1% Triton X-100/PBS, 3 minutes each.
# Rabbit anti-E-cadherin antibody (Santa Cruz Biotech, Calif.) was diluted 1/100 in 5% BSA/PBS and added to the cells on coverslips for 2 hours. Cells were washed 5 times in 0.1% Triton X-100/PBS, 3 minutes each. Secondary antibody, Alexa Fluor 488 chicken anti-rabbit was diluted 1/200 in 5% BSA/PBS and added to coverslips for one hour in the dark. Cells were washed five times in 0.1% Triton X-100/PBS, three minutes each. Cells were washed in PBS for one minute and placed in Hoechst (1 mg/ml), diluted 1/1000, for 5 minutes. Cells were washed in PBS for one minute. SlowFade was added to slides, coverslips were placed face down and sealed with nail polish. […]
# [3] = tested on: p27 in melanoma cells; test: Immunofluorescence of p27; format: cell-based, mouse; details: cells treated with methyl sulfone
# Experimental: Cells were grown on 12 mm coverslips until 60 to 70% confluent. 2% methyl sulfone was added to half the coverslips and normal medium to other half. After 24, 48, and 96 hours, coverslips were placed in porcelain holders and incubated in 37° C. PBS for 30 seconds followed by incubation in 37° C. 4% paraformaldehyde for 10 minutes. Cells were washed in PBS for 5 minutes followed by incubation in 0.2% Triton X-100/PBS for 5 minutes at room temperature. Chicken serum ([…] in 1 ml PBS) was added to cells for 30 minutes. Cells were washed 3 times in 0.2% Triton X-100/PBS, 3 minutes each. Rabbit anti-p27 polyclonal antibody, (Santa Cruz Biotech, Calif.) was diluted 1/250 in 1% BSA/PBS and added to coverslips for 1.5 hours. Cells were washed 5 times in 0.2% Triton X-100/PBS, 3 minutes each. Secondary antibody, Alexa Fluor 488 chicken anti-rabbit antibody, was diluted 1/1000 in 1% BSA/PBS and added to coverslips for 30 minutes in the dark. Cells were washed five times in 0.2% Triton X-100/PBS, three minutes each. Cells were washed twice in PBS for two minutes each and placed in DAPI, diluted 1/1000 in PBS, for 5 minutes. Cells were washed in PBS for one minute. SlowFade was added to slides, coverslips were placed face down and sealed with nail polish. […]
substance,measurement,setting,value
methyl sulfone,viability of normal lymphocytes (T-cells),"[1]; 10% methyl sulfone, 20 hours",remained viable
same,T-cells from the healthy volunteer induced into apoptosis,"[1]; summary in the description, concentration not given",less than 10%
same,"distribution of E-cadherin, β-catenin, N-cadherin and vimentin vs untreated",[2],no significant differences
same,localization of p27,[3],localized in the nuclei
